Where two headings read alike, the source gives them in different places.
Tests used:
[1] = biological target: T1, hD2L (Homo sapiens, UniProt P14416); test: Radioligand binding, dopamine D2 ([3H]spiperone); conditions: Table 4; [3H]spiperone 1 nM; read-out: Binding affinity, IC50 (nM) D2
T1 construct: purchased BioSignal Packard Inc., Montreal, Canada
Method: (§1) 2-2: Binding assays of Dopamine Receptor Family
(§2) The radioligands used were [^3H] spiperone (for hD2L and hD3 receptors, 1 nM) and [^3H] YM-09151-2 (for hD4.2 receptor, 0.06 nM). Radioligand bindings were performed by the protocols provided by the supplier of receptor membranes (BioSignal Packard Inc., Montreal, Canada). Briefly, the buffer used in D2 or D3 receptor binding assay was 50 mM Tris-HCl (pH 7.4), 10 mM MgCl2, 1 mM EDTA, or 50 mM Tris-HCl (pH 7.4), 5 mM MgCl2, 5 mM EDTA, 5 mM KCl, 1.5 mM CaCl2, 120 mM NaCl, respectively. In [^3H] YM-09151-2 receptor binding assays, the buffer containing 50 mM Tris-HCl (pH 7.4), 5 mM MgCl2, 5 mM EDTA, 5 mM KCl and 1.5 mM CaCl2 was used. […] Competition binding studies were carried out with 7-8 concentrations of the test compound run in duplicate tubes, and isotherms from three assays were calculated by computerized nonlinear regression analysis (GraphPad Prism Program, San Diego, […]) to yield median inhibitory concentration (IC50) values.

[2] = biological target: T2, Human serotonin 5-HT6 receptor (Homo sapiens, UniProt P50406); test: [3H]LSD binding assay on cloned 5-HT6 receptor membranes
T2 construct: made in house; host or cells: insect Sf21 cells (baculovirus vector BacPAK8)

[3] = biological target: T3, 5-HT2c (Homo sapiens, UniProt P28335); test: Radioligand binding, 5-HT2c ([3H]Mesulergine); conditions: Table 4; [3H]Mesulergine 1 nM; read-out: Binding affinity, IC50 (nM) 5-HT2c
T3 construct: purchased Euroscreen/BioSignal Packard Inc
T3 sequence (P28335 33-458): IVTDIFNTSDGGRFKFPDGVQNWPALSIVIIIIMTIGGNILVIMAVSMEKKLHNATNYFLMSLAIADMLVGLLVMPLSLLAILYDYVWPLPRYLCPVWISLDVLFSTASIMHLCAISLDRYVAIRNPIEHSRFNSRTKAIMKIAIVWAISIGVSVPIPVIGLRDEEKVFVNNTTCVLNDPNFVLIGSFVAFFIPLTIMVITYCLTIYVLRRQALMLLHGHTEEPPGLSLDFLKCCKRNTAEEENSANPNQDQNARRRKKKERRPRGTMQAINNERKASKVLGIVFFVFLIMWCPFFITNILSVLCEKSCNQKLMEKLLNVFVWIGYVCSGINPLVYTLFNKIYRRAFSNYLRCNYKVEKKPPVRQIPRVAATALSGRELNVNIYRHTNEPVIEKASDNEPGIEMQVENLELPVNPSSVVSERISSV

[4] = biological target: T4, 5-HT7 (Homo sapiens, UniProt P34969); test: Radioligand binding, 5-HT7 ([3H]LSD); conditions: Table 4; [3H]LSD 3 nM; read-out: Binding affinity, IC50 (nM) 5-HT7
T4 construct: purchased Euroscreen/BioSignal Packard Inc

[5] = biological target: T5, hD4.2 receptor (Homo sapiens, UniProt P21917, DEL265-296); test: Radioligand binding, dopamine D4 ([3H]YM-09151-2); conditions: Table 4; [3H]YM-09151-2 0.06 nM; read-out: Binding affinity, IC50 (nM) D4
T5 construct: purchased BioSignal Packard Inc., Montreal, Canada
T5 sequence (P21917 with tags, fused parts or gaps DEL265-296): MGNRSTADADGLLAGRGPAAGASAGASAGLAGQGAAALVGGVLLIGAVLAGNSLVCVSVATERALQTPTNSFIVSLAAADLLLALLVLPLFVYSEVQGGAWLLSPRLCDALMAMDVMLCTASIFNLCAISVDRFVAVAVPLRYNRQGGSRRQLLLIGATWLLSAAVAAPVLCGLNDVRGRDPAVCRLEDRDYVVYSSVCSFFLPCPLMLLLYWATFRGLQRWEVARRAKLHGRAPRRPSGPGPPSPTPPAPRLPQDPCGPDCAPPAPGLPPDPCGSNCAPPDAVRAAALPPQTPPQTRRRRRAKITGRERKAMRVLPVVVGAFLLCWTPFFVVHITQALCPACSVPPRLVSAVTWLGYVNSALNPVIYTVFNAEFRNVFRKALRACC
Method: as §1, §2

[6] = biological target: T6, hD3 (Homo sapiens, UniProt P35462); test: Radioligand binding, dopamine D3 ([3H]spiperone); conditions: Table 4; [3H]spiperone 1 nM; read-out: Binding affinity, IC50 (nM) D3
T6 construct: purchased BioSignal Packard Inc., Montreal, Canada
Method: as §1, §2

[7] = biological target: T7, 5-HT1a (Homo sapiens, UniProt P08908); test: Radioligand binding, 5-HT1a ([3H]8-OH-DPAT); conditions: Table 4; [3H]8-OH-DPAT 0.5 nM; read-out: Binding affinity, IC50 (nM) 5-HT1a
T7 construct: purchased Euroscreen/BioSignal Packard Inc
T7 sequence (P08908 1-422): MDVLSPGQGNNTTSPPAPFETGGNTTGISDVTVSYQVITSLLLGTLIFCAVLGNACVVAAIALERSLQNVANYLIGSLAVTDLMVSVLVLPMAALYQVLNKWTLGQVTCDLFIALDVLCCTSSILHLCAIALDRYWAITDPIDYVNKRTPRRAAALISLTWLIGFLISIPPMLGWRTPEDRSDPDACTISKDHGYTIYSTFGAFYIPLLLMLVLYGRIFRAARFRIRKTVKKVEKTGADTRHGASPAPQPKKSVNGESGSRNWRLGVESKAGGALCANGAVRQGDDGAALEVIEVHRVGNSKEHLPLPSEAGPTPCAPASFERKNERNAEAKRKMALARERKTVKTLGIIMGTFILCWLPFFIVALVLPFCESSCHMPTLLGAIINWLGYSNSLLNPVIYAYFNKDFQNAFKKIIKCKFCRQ
Method: Radioligand bindings were performed according to the test method provided by the supplier of receptor membrane (Euroscreen/BioSignal Packard Inc.). The detailed assay conditions and the results were shown in the following Table 3 and Table 4, respectively.

[8] = biological target: T8, 5-HT2a (Homo sapiens, UniProt P28223); test: Radioligand binding, 5-HT2a ([3H]Ketanserin); conditions: Table 4; [3H]Ketanserin 1 nM; read-out: Binding affinity, IC50 (nM) 5-HT2a
T8 construct: purchased Euroscreen/BioSignal Packard Inc

[9] = biological target: D1 (Homo sapiens, UniProt P21728); test: Radioligand binding, dopamine D1; conditions: Table 4; read-out: Binding affinity, IC50 (nM) D1
[10] = Table 2, 1.87 nM [3H]LSD, 37 C, 60 min, read-out: IC50 (nM), binding affinity to the 5-HT6 receptor
[11] = Table 4, read-out: Binding affinity, IC50 (nM) 5-HT6

T2 sequence (P50406 whole entry): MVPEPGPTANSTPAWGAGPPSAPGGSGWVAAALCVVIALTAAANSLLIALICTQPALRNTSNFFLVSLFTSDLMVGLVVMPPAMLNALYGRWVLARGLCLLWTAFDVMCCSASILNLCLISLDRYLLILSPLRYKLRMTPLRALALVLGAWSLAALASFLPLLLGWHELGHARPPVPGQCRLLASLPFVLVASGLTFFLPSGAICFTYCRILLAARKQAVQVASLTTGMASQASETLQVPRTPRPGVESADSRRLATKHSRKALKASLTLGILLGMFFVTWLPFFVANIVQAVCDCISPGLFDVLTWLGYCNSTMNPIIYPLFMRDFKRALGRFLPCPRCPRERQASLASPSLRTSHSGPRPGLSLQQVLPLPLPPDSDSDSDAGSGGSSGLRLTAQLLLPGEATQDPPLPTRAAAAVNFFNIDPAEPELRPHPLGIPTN
T8 sequence (P28223 whole entry): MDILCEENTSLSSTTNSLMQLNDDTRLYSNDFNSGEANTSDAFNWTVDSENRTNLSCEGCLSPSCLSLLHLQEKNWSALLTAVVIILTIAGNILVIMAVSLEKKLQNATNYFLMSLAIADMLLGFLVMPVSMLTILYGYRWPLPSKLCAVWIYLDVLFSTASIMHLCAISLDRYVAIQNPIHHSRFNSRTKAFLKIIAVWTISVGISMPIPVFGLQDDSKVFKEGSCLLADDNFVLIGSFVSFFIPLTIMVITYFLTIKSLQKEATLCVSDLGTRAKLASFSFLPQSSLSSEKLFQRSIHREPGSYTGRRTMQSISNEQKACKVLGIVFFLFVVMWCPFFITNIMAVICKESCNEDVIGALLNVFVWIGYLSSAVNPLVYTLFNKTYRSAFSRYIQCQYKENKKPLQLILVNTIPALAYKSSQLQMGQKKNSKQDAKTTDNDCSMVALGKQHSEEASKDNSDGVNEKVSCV
T1 sequence (P14416 whole entry): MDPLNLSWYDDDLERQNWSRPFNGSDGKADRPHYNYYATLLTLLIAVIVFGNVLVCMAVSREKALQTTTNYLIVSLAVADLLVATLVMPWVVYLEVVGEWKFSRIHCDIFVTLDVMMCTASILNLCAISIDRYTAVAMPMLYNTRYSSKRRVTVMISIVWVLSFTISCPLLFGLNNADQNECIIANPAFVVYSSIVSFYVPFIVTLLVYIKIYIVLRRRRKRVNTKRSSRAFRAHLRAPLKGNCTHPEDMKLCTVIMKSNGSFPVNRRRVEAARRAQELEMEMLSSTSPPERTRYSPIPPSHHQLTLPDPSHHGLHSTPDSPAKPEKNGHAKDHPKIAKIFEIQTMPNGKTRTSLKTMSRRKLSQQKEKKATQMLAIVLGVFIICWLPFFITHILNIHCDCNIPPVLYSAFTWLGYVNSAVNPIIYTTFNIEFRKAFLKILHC
Sequence of D1 (P21728 whole entry): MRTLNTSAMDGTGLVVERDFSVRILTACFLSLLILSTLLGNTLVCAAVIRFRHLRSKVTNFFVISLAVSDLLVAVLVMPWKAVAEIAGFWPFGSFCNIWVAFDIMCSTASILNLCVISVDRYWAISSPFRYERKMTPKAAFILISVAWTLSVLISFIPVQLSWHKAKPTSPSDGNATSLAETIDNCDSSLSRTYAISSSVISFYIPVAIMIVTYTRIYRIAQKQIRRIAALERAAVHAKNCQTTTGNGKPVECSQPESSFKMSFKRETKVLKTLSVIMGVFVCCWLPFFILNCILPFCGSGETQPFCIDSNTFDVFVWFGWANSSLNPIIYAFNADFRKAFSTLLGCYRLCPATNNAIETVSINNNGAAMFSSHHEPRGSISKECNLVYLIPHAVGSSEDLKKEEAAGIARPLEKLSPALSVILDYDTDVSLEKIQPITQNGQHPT
T4 sequence (P34969 whole entry): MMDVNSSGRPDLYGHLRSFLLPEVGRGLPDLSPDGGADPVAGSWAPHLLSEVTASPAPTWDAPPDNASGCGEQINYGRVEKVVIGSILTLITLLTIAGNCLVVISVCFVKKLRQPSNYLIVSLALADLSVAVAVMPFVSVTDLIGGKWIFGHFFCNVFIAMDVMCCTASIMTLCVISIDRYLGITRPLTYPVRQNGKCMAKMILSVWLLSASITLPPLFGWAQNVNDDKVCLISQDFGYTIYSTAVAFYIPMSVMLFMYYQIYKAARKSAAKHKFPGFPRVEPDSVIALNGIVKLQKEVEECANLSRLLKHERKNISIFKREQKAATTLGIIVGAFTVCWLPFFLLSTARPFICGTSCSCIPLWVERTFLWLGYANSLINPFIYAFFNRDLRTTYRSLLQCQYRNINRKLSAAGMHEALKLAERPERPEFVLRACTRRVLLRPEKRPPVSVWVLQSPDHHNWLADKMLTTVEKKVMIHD
T6 sequence (P35462 whole entry): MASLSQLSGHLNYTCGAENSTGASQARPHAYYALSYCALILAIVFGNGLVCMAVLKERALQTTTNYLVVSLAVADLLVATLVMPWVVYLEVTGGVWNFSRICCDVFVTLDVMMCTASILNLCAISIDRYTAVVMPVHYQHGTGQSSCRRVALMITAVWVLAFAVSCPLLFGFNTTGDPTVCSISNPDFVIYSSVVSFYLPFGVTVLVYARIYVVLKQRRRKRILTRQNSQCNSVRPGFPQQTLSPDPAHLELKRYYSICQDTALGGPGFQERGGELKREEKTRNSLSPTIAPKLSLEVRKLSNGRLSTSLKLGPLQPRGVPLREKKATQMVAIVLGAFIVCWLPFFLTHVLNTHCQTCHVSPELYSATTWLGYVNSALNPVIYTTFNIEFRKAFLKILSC

Compound | IC50 [1] [nM] | IC50 [2, 10] [nM] | IC50 [2, 11] [nM] | IC50 [3] [nM] | IC50 [4] [nM] | IC50 [5] [nM] | IC50 [6] [nM] | IC50 [7] [nM] | melting point [°C] | IC50 [8] [nM] | IC50 [9] [nM] | binding affinity at 5-HT6 receptor labeled by [3H]LSD, in words ([2]; comment on Table 2)
CC1(c2ccc(Cl)cc2)C(=O)c2c(N3CCNCC3)cc(Cl)cc2N(Cc2ccccc2)C1=O (stereo not drawn) [Example 19, 1-Benzyl-7-chloro-3-(4-chloro-phenyl)-3-methyl-5-piperazin-1-yl-1H-quinoline-2,4-dione] | 8450 | 2.3 | 15.3 | 6910 | 7570 | 8090 | 9140 | 6550 | 135 to 136 | 9100 | 7040 | –
COc1ccc(CN2C(=O)C(C)(c3ccc(OC)cc3)C(=O)c3c(N4CCNCC4)cc(Cl)cc32)cc1 (stereo not drawn) [Example 31, 7-Chloro-1-(4-methoxy-benzyl)-3-(4-methoxy-phenyl)-3-methyl-5-piperazin-1-yl-1H-quinoline-2,4-dione] | 6430 | 26.5 | 21.3 | 7950 | 8440 | 8710 | 8950 | 6950 | 182 to 183 | 8340 | 7550 | –
CC1(c2cccc(O)c2)C(=O)c2c(N3CCNCC3)cc(Cl)cc2N(Cc2ccccc2)C1=O (stereo not drawn) [Example 51, 1-Benzyl-7-chloro-3-(3-hydroxy-phenyl)-3-methyl-5-piperazin-1-yl-1H-quinoline-2,4-dione] | 8650 | 6.2 | 20.7 | 8740 | 7580 | 9460 | 9880 | 8450 | 238 to 240 | 7550 | 6390 | –
COc1ccc(C2(C)C(=O)c3c(N4CCNCC4)cc(Cl)cc3N(Cc3ccccc3Br)C2=O)cc1 (stereo not drawn) [Example 35, 1-(2-Bromo-benzyl)-7-chloro-3-(4-methoxy-phenyl)-3-methyl-5-piperazin-1-yl-1H-quinoline-2,4-dione] | 7150 | 9.2 | 16.4 | 7720 | 7820 | 8880 | 9450 | 9510 | 150 to 151 | 7640 | 9750 | –
CCN(CC)c1ccc(C2(C)C(=O)c3c(N4CCN(C)CC4)cc(Cl)cc3N(Cc3ccccc3)C2=O)cc1 (stereo not drawn) [Example 5, 1-Benzyl-7-chloro-3-(4-diethylamino-phenyl)-3-methyl-5-(4-methyl-piperazin-1-yl)-1H-quinoline-2,4-dione] | 7050 | 37.8 | 16.8 | 4660 | 7620 | 8750 | 7080 | 6450 | 204 to 206 | 7540 | 7700 | –
CC1(c2ccc(Br)cc2)C(=O)c2c(N3CCNCC3)cc(Cl)cc2N(Cc2ccccc2)C1=O (stereo not drawn) [Example 20, 1-Benzyl-3-(4-bromo-phenyl)-7-chloro-3-methyl-5-piperazin-1-yl-1H-quinoline-2,4-dione] | 8250 | 1.9 | 18.2 | > 10000 | 6840 | 8990 | 9380 | 6360 | 116 to 117 | 5700 | 8540 | significant affinities
COc1ccc(C2(C)C(=O)c3c(N4CCNCC4)cc(Cl)cc3N(Cc3cccnc3)C2=O)cc1 (stereo not drawn) [Example 37, 7-Chloro-3-(4-methoxy-phenyl)-3-methyl-5-piperazin-1-yl-1-pyridin-3-ylmethyl-1H-quinoline-2,4-dione] | 8050 | 21.4 | 19.8 | 8050 | 5990 | 9380 | > 10000 | 9060 | 160 to 162 | 6020 | 7680 | –
CCN1C(=O)C(C)(c2ccc(OC)cc2)C(=O)c2c(N3CCNCC3)cc(Cl)cc21 (stereo not drawn) [Example 46, 7-Chloro-1-ethyl-3-(4-methoxy-phenyl)-3-methyl-5-piperazin-1-yl-1H-quinoline-2,4-dione] | 8570 | 49.1 | 15.8 | 9110 | 7950 | 9570 | 9410 | 6700 | 127 to 129 | 6360 | 7890 | –
COc1ccc(C2(C)C(=O)c3c(N4CCNCC4)cc(Cl)cc3N(Cc3cccc([N+](=O)[O-])c3)C2=O)cc1 (stereo not drawn) [Example 23, 7-Chloro-3-(4-methoxy-phenyl)-3-methyl-1-(3-nitro-benzyl)-5-piperazin-1-yl-1H quinoline-2,4-dione] | 6930 | 2.7 | 16.7 | 8400 | 8450 | 9090 | 9650 | 9010 | 153 to 154 | 6480 | 7640 | –
COc1ccc(C2(C)C(=O)c3c(N4CCNCC4)cc(Cl)cc3N(Cc3nc4ccccc4[nH]3)C2=O)cc1 (stereo not drawn) [Example 43, 1-(1H-Benzoimidazol-2-ylmethyl)-7-chloro-3-(4-methoxy-phenyl)-3-methyl-5-piperazin-1-yl-1H-quinoline-2,4-dione] | 9010 | 137 | 19.3 | 7890 | 9520 | 9470 | 9440 | 8020 | 178 to 179 | 5800 | 6350 | –

— patent US20080275058A1, “N-Substituted-1H-Quinoline-2,4-Diones, Preparation Method Thereof, And Pharmaceutical Composition Containing The Same” (KOREA RESEARCH INSTITUTE OF CHEMICAL TECHNOLOGY, priority 2005, published 2008)
